Laboratory results taken from patent publication US7816387B2, “β secretase inhibitor” (Dainippon Sumitomo Pharma Co., Ltd., priority 2005, dated 2010).

Tested on: Human Neuroblastoma IMR-32 Cell
Experiment: Inhibition of production and secretion of Aβ in IMR-32 cells (ELISA of Aβ)
Assay type: cell-based
Conditions: 24 hours incubation, Aβ in supernatant by ELISA
Procedure: 1) Incubation of IMR-32 Cell
IMR-32 cells (American Type Culture Collection Inc.) were seeded to 35 mmφPetri dish (FALCON Ltd.) at 37° C. for 2 to 3 days at 1.5×10^5 cells/petri dish. A DMSO solution containing test compound was dissolved in a 0.2% bovine serum albumin (Sigma Inc.)/Dulbecco's modified Eagle medium (Sigma Inc.), and a 1 mL of the mixture was added to the above Petri dish and the mixture was incubated for additional 24 hours. A 0.2% bovine serum albumin/Dulbecco's modified Eagle medium without the test compound was used as a control. The supernatant was collected and centrifuged at 5000 rpm for 5 minutes to precipitate a suspension cell. After centrifugation, the supernatant was used as a measurement sample of Aβ.
(2) Determination by Enzyme-Linked Immunoassay (ELISA) of Aβ
To a maxi sorp 96 well plate (Nunc Inc.) was added 50 μL portions of 4G8 antibody (Sigma Inc.) dissolved in 0.1M carbonate buffer (pH 9.5) and the mixture was allowed to stand at 4° C. overnight. […] After washing three times with PBST, color was developed by TMB substrate kit (Pias Inc.) and the calorimetric method (measured wavelength: 450 nm) was determined by a plate reader (ELx 808, BIO-TEK INSTRUMENTS Inc.).

- IC50: 0.2 µM
SMILES: C[C@@H](NC(=O)c1cc(C(=O)N[C@@H](Cc2ccccc2)[C@@H](O)C(=O)Nc2ncc[nH]2)cc(N(C)S(C)(=O)=O)c1)c1ccccc1 [Example 1, N-[(1S,2R)-1-Benzyl-2-hydroxy-3-(1H-imidazol-2-ylamino)-3-oxopropyl]-5-[methyl(methylsulfonyl)amino]-N′-[(1R)-1-phenylethyl]isophthalamide]
